Where “and” joins values, the source holds several entries; their conditions need not be identical. Equal values may be shown once.
Key:
Cytospora chrysosperma = test: In vitro mycelia growth of Cytospora chrysosperma on potato dextrose agar containing the test material; format: cell-based; settings: 23° C.
Method: The effectiveness of Prunus compositions was compared to the effectiveness of synthetic benzaldehyde in stopping or restricting the growth of the Cytospora fungus on potato dextrose agar. The volatile compounds of a Prunus virginiana hydrodistillate were concentrated by counter-flow flash evaporation (i.e. collected from vessel 122 as shown in FIG. 2) to provide a concentrated extract that was further processed by distillation to remove hydrocyanic acid. The resulting extract was analyzed and found to contain 1.2% trans-2-hexenal, 98.5% benzaldehyde, and traces of other compounds originally in the hydrodistillate. This extract was reconstituted in distilled water to provide a solution containing approximately 10,000 ppm of Prunus volatiles. This stock solution was used to prepare a series of agar solutions containing between 0 and 10,000 ppm Prunus volatiles. The Prunus material was blended into the agar after autoclaving and prior to pouring the agar into Petri plates. […] All plates were inoculated with a 5-mm potato dextrose agar plug from a two-week-old culture of C. chrysosperma.

Uncinula necator = test: Powdery mildew development on 'Pinot Noir' grape leaves after spray treatment; format: in vivo; settings: for Powdery mildew disease rating on grape leaves, per repetition: scale 1 = no symptoms, 5 = 100% infected, Prunus 1 crude, Prunus 2 and SB at 1000 ppm, repetitions 1-3
Method: Prunus compositions (including crude Prunus virginiana hydrodistillate, collected in vessel 112 of FIG. 2, having the analysis of the first entry of Table 1) were tested on grape plants (Pinot Noir) infected with powdery mildew. The experiment was set up in a complete randomized block design with three repetition, four treatments each, with three observations per treatment. Treatments were as follows: Prunus 1: crude hydrodistillate from Prunus biomass, Prunus 2: benzaldehyde separated from the hydrodistillate at 1,000 ppm, SB-synthetic benzaldehyde, and control-distilled water.
Treatments were applied to infected leaves in early August and in early September. Three adjacent leaves on a vine were sprayed with each treatment and replicated on three different vines (plants). The solutions were applied with a mist sprayer until run off. The first disease reading was obtained in early September, one month after the first treatment application. The second disease reading was obtained in early October, about one month after the second treatment application.
Disease ratings were based on a scale of 1 to 5, with 1 indicating no symptoms and 5 indicating 100-percent infected. The results are summarized in Table 5, in which each datum is a mean value of the three observations for each treatment made on the two dates disease readings were obtained. […] The crude hydrodistillate composition contained all of the volatile chemicals identified above in Example 1. The increased fungicidal action of the crude hydrodistillate indicated synergistic action of the Prunus volatiles relative to purified or synthetic benzaldehyde.

Sphaerotheca pannosa = test: Powdery mildew development on rose leaves after spray treatment; format: in vivo; settings: for Powdery mildew disease rating on rose leaves, per repetition: scale 1 = no symptoms, 5 = 100% infection, Prunus 1 crude, Prunus 2 and SB at 1000 ppm, repetitions 1-3
Method: Prunus compositions (including crude Prunus virginiana hydrodistillate, collected in vessel 112 of FIG. 2, having the SPME determined composition of the first entry in Table 1) were tested on diseased plants and were evaluated as a fungicide for controlling Rose powdery mildew. The experiment was set up in a complete randomized block design with three repetitions and four treatments. Treatments were as follows: Prunus 1: crude hydrodistillate from Prunus biomass, Prunus 2: benzaldehyde separated from the crude hydrodistillate at 1,000 ppm, SB-synthetic benzaldehyde, and control-distilled water.
Treatments were applied to infected leaves twice (one week apart) in late July, and once in late August. All leaves were covered with mildew mycelia at the time of the first treatment. One compound leaf was treated with each treatment. Leaves from different stems were treated for each of the three repetition. The treatments were applied with a mist sprayer until run off. Disease development was rated on a scale of 1 to 5, where 1 indicated no symptoms and 5 indicated 100-percent infected. The first disease rating was obtained at the time of the late August treatment, followed by a second disease rating in early September. […] The crude distillate from the Prunus biomass was effective in eliminating or inhibiting the growth of the fungus on the rose leaves. […] The crude hydrodistillate containing all of the volatile compounds identified in Example 1 appeared to act synergistically, relative to purified or synthetic benzaldehyde, to control the rose mildew fungus.

With `O=Cc1ccccc1` [SB, benzaldehyde] the “Mycelial Growth (radial)” value (Cytospora chrysosperma; 25 ppm in PDA, 1 day after treatment) was 0.0 cm, the “Mycelial Growth (radial)” value (Cytospora chrysosperma; 25 ppm in PDA, 2 days after treatment) was 1.2 cm and the “Mycelial Growth (radial)” value (Cytospora chrysosperma; 25 ppm in PDA, 3 days after treatment) was 2.8 cm. The “Mycelial Growth (radial)” value (Cytospora chrysosperma; 25 ppm in PDA, 4 days after treatment) was 3.8 cm, the “Mycelial Growth (radial)” value (Cytospora chrysosperma; 25 ppm in PDA, 5 days after treatment) was 4.1 cm and the “Mycelial Growth (radial)” value (Cytospora chrysosperma; 25 ppm in PDA, 6 days after treatment) was 4.1 cm. For the same molecule, the “Mycelial Growth (radial)” value (Cytospora chrysosperma; 25 ppm in PDA, 7 days after treatment) was 4.1 cm, the “Mycelial Growth (radial)” value (Cytospora chrysosperma; 25 ppm in PDA, 14 days after treatment) was 4.1 cm and the “Mycelial Growth (radial)” value (Cytospora chrysosperma; 50 ppm in PDA, 1 day after treatment) was 0.0 cm. The “Mycelial Growth (radial)” value (Cytospora chrysosperma; 50 ppm in PDA, 2 days after treatment) was 1.1 cm, the “Mycelial Growth (radial)” value (Cytospora chrysosperma; 50 ppm in PDA, 3 days after treatment) was 2.6 cm and the “Mycelial Growth (radial)” value (Cytospora chrysosperma; 50 ppm in PDA, 4 days after treatment) was 3.1 cm. The “Mycelial Growth (radial)” value (Cytospora chrysosperma; 50 ppm in PDA, 5 days after treatment) was 4.0 cm, the “Mycelial Growth (radial)” value (Cytospora chrysosperma; 50 ppm in PDA, 6 days after treatment) was 4.1 cm and the “Mycelial Growth (radial)” value (Cytospora chrysosperma; 50 ppm in PDA, 7 days after treatment) was 4.1 cm. For the same molecule, the “Mycelial Growth (radial)” value (Cytospora chrysosperma; 50 ppm in PDA, 14 days after treatment) was 4.1 cm, the “Mycelial Growth (radial)” value (Cytospora chrysosperma; 100 ppm in PDA, 1 day after treatment) was 0.0 cm and the “Mycelial Growth (radial)” value (Cytospora chrysosperma; 100 ppm in PDA, 2 days after treatment) was 1.2 cm. For the same molecule, the “Mycelial Growth (radial)” value (Cytospora chrysosperma; 100 ppm in PDA, 3 days after treatment) was 2.7 cm, the “Mycelial Growth (radial)” value (Cytospora chrysosperma; 100 ppm in PDA, 4 days after treatment) was 3.5 cm and the “Mycelial Growth (radial)” value (Cytospora chrysosperma; 100 ppm in PDA, 5 days after treatment) was 4.1 cm. The “Mycelial Growth (radial)” value (Cytospora chrysosperma; 100 ppm in PDA, 6 days after treatment) was 4.1 cm, the “Mycelial Growth (radial)” value (Cytospora chrysosperma; 100 ppm in PDA, 7 days after treatment) was 4.1 cm and the “Mycelial Growth (radial)” value (Cytospora chrysosperma; 100 ppm in PDA, 14 days after treatment) was 4.1 cm. For the same molecule, the “Mycelial Growth (radial)” value (Cytospora chrysosperma; 500 ppm in PDA, 1 day after treatment) was 0.0 cm, the “Mycelial Growth (radial)” value (Cytospora chrysosperma; 500 ppm in PDA, 2 days after treatment) was 0.9 cm and the “Mycelial Growth (radial)” value (Cytospora chrysosperma; 500 ppm in PDA, 3 days after treatment) was 2.3 cm. For the same molecule, the “Mycelial Growth (radial)” value (Cytospora chrysosperma; 500 ppm in PDA, 4 days after treatment) was 3.1 cm, the “Mycelial Growth (radial)” value (Cytospora chrysosperma; 500 ppm in PDA, 5 days after treatment) was 4.0 cm and the “Mycelial Growth (radial)” value (Cytospora chrysosperma; 500 ppm in PDA, 6 days after treatment) was 4.0 cm. For the same molecule, the “Mycelial Growth (radial)” value (Cytospora chrysosperma; 500 ppm in PDA, 7 days after treatment) was 4.1 cm, the “Mycelial Growth (radial)” value (Cytospora chrysosperma; 500 ppm in PDA, 14 days after treatment) was 4.1 cm and the “Mycelial Growth (radial)” value (Cytospora chrysosperma; 1,000 ppm in PDA, 1 day after treatment) was 0.0 cm. For the same molecule, the “Mycelial Growth (radial)” value (Cytospora chrysosperma; 1,000 ppm in PDA, 2 days after treatment) was 0.7 cm, the “Mycelial Growth (radial)” value (Cytospora chrysosperma; 1,000 ppm in PDA, 3 days after treatment) was 1.6 cm and the “Mycelial Growth (radial)” value (Cytospora chrysosperma; 1,000 ppm in PDA, 4 days after treatment) was 2.2 cm. For the same molecule, the “Mycelial Growth (radial)” value (Cytospora chrysosperma; 1,000 ppm in PDA, 5 days after treatment) was 3.3 cm, the “Mycelial Growth (radial)” value (Cytospora chrysosperma; 1,000 ppm in PDA, 6 days after treatment) was 4.0 cm and the “Mycelial Growth (radial)” value (Cytospora chrysosperma; 1,000 ppm in PDA, 7 days after treatment) was 4.1 cm. For the same molecule, the “Mycelial Growth (radial)” value (Cytospora chrysosperma; 1,000 ppm in PDA, 14 days after treatment) was 4.1 cm, the “Mycelial Growth (radial)” value (Cytospora chrysosperma; 5,000 ppm in PDA, 1 day after treatment) was 0.0 cm and the “Mycelial Growth (radial)” value (Cytospora chrysosperma; 5,000 ppm in PDA, 2 days after treatment) was 0.0 cm. The “Mycelial Growth (radial)” value (Cytospora chrysosperma; 5,000 ppm in PDA, 3 days after treatment) was 0.0 cm, the “Mycelial Growth (radial)” value (Cytospora chrysosperma; 5,000 ppm in PDA, 4 days after treatment) was 0.0 cm and the “Mycelial Growth (radial)” value (Cytospora chrysosperma; 5,000 ppm in PDA, 5 days after treatment) was 0.0 cm. The “Mycelial Growth (radial)” value (Cytospora chrysosperma; 5,000 ppm in PDA, 6 days after treatment) was 0.1 cm, the “Mycelial Growth (radial)” value (Cytospora chrysosperma; 5,000 ppm in PDA, 7 days after treatment) was 0.3 cm and the “Mycelial Growth (radial)” value (Cytospora chrysosperma; 5,000 ppm in PDA, 14 days after treatment) was 0.0 cm. The “Mycelial Growth (radial)” value (Cytospora chrysosperma; 10,000 ppm in PDA, 1 day after treatment) was 0.0 cm, the “Mycelial Growth (radial)” value (Cytospora chrysosperma; 10,000 ppm in PDA, 2 days after treatment) was 0.0 cm and the “Mycelial Growth (radial)” value (Cytospora chrysosperma; 10,000 ppm in PDA, 3 days after treatment) was 0.0 cm. The “Mycelial Growth (radial)” value (Cytospora chrysosperma; 10,000 ppm in PDA, 4 days after treatment) was 0.0 cm, the “Mycelial Growth (radial)” value (Cytospora chrysosperma; 10,000 ppm in PDA, 5 days after treatment) was 0.0 cm and the “Mycelial Growth (radial)” value (Cytospora chrysosperma; 10,000 ppm in PDA, 6 days after treatment) was 0.0 cm. For the same molecule, the “Mycelial Growth (radial)” value (Cytospora chrysosperma; 10,000 ppm in PDA, 7 days after treatment) was 0.0 cm, the “Mycelial Growth (radial)” value (Cytospora chrysosperma; 10,000 ppm in PDA, 14 days after treatment) was 0.0 cm and the “Powdery mildew disease rating on grape leaves, per repetition” value (Uncinula necator; reading 9/7, one month after first spray) was 2 and 1. For the same molecule, the “Powdery mildew disease rating on grape leaves, per repetition” value (Uncinula necator; reading 10/5, about one month after second spray) was 3, the “Control of grape powdery mildew (in words)” value (Uncinula necator; spray on infected Pinot Noir leaves, up to second reading) was “reduced the spread of the mildew fungus, but did not control it” and the “Powdery mildew disease rating on rose leaves, per repetition” value (Sphaerotheca pannosa; reading 8/22) was 3 and 2. The “Powdery mildew disease rating on rose leaves, per repetition” value (Sphaerotheca pannosa; reading 9/4) was 3 and 2 and the “Control of rose powdery mildew (in words)” value (Sphaerotheca pannosa; spray on infected rose leaves) was “less effective in removing the fungus from the infected rose leaves”.

— patent US7195788B2, “Pesticidal compositions from prunus” (Premier Botanicals, Ltd., priority 2001, dated 2007)
